Experimental findings from patent publication US20260207788A1, “HEAVY ISOTOPE 3-BP MOLECULES, COMPOSITIONS, AND TREATMENTS” (KODISCOVERY, LLC, priority 2022, published 2026) are described below.

Common to all, as to type: cell-based
Data set [1] deals with Panc-2 cells. The experiment in a line: MTS assay, percent viability of Panc-2 cells. The note with it: 40 μM; for cell death (cells killed) in terms of MTT: after 8 hours; for cells killed in terms of MTT: time not given. For orientation: Tetrazolium dyes change colour on reduction, which living cells bring about.
The test system of data set [2] is Panc-2 cells. The experiment in a line: Imaging of morphology of treated panc-2 cells.
In data set [3] the test system is Panc-2 cells. The experiment in a line: ATP assay (cell titer Glo2.0), ATP generation in panc-2 cells. Particulars: 40 μM; for cells killed in terms of ATP generation: time not given. How it is done:
(§1) In current study we have tested anti-tumor potency of 7, 3-BP analogues employing MTS and ATP assay. The percent viability of Pan-2 cells was determined in presence of graded concentration of 3BP analogues 0, 1, 2, 3, 4, 5, 6 & 7.
For ATP assay panc2 cells (2×10^3/in 100 ul media) were seeded in each well of 96 well luminescence plate (Corning, USA) for 12 hours in media described above. Cells were treated with KAT 0, 5, 20, 40, 80, 100 for 1, 2, 4, 8 hours. In separate experiments, cells were treated with KAT 40, 60 μM for 15, 30 & 60 min. At the end of each treatment, 100 ul ATP assay reagent cell titer Glo2.0 (Promega, USA) was added in each well, shacked on a rotating shaker for 2 mins, incubated at room temperature for 10 mins in dark and luminescence was measured with BIOTEK synergy HT.
(Cellular ATP, detected with luciferase, serves as a proxy for viable cell number.)

Data set [4] relates to Panc-2 cells. The experiment in a line: MTS assay, percent viability of Panc-2 cells. The note with it: for cell death: time not given; for viability at 40 µM / viability at 80 µM / viability at 100 µM: read-out: percent viability of Panc-2 cells. How it is done:
as §1
Panc2 cells were seeded in either 6 well plate (6-6.5×10^4 cells/well/2 ml media) or in 12 well plate (3-3.5×10^4/1 ml media) or in 96 well plate ([…] /well/100 ul) in RPMI 1640 with 10% FBS, 0.5% antibiotic media for about 12 hours, in CO2 cell culture incubator at 37 °C. The cells were treated initially with KAT 0, 5, 20, 40, 80 and 100 uM for 1, 2, 4, 8 hours and latter in separate experiments with 40 and 60 µM for 15, 30, 1 hour. For each treatment KAT was added in a volume maximum 10 ul. For control same amount of KAT buffer was used. At the end of each time point treatment MTS reagent (Cell titer 96 aqueous one solution, Promega, USA) was added to each well according to the manufacturer instruction and incubated for approx. 2 hours. After that 100 ul from each well was transferred to 96 well plate (quartiles for each treatment) and measured absorbance at 490 nm with BIOTEK synergy HT. For 96 well plate reagent was added directly to each well, incubated for 2 hours and measured absorbance at 490 nm.

Where two headings read alike, the source gives them in different places.

`O=C(O)C(=O)CBr` [Molecule 7, 3-Bromopyruvate, reference compound]: the “cell death (cells killed) in terms of MTT” value (shortened to “cell death … of MTT”) in data set [1] is “about 43%”. Also, the cell morphology entry in data set [2] (40 μM, after 8 hours) is “rounding and membrane blabbing”. For the same compound, the ATP generation in data set [3] (1 hour treatment) came out at 79%; in data set [3] (after 8 hours), 64%. In addition, the “cell death (cells killed) in terms of ATP generation” value (“cell death … of ATP generation” for short) in data set [3] (after 8 hours) was “about 74%”. Further, the “percent viability of Panc-2 cells” value in data set [4] (40 μM, 1 hour treatment) is “about 67%”; in data set [4] (40 μM, 8 hours treatment) it was “about 46%”; in data set [4] (80 μM, 1 hour treatment) it was “about 10%”; in data set [4] (100 μM, 1 hour treatment), “about 4%”.
The viability is a per cent measure of how many cells are alive, often set against a control. Consider `O=C(CBr)[13C](=O)O` [Molecule 1], for which the “cell death … of MTT” value in data set [1] is 70%. Moreover, in data set [2] (40 μM, after 8 hours), the cell morphology result was “rounding and membrane blabbing”. For the same compound, the ATP generation in data set [3] (1 hour treatment) is given as 57%; in data set [3] (after 8 hours) it was 7%. Moreover, the “cell death … of ATP generation” value in data set [3] (after 8 hours) is recorded as 93%. For the same compound, the cells killed in data set [4] (80 μM, 1 hour treatment) is 79%. The “cell death (cells killed)” value in data set [4] (80 μM, 8 hours treatment) was determined as 96%. In addition, the cell death in data set [4] (80 and 100 uM) is recorded as 95-97%. The results for the viability at 40 µM in data set [4] (1 h) and in data set [4] (8 h) were 54% and 30%, respectively.
`O=[13C](O)[13C](=O)[13CH2]Br` [Molecule 6]: the “cell death … of MTT” value in data set [1] is on record as “about 43%”. For the same compound, the cell morphology entry in data set [2] (40 μM, after 8 hours) is “rounding and membrane blabbing”. Moreover, in data set [3] (1 hour treatment), the ATP generation is 73%. In addition, in data set [3] (after 8 hours), the ATP generation stood at 26% and the “cell death … of ATP generation” value is listed as “about 74%”. For the same compound, in data set [4] (1 h), the viability at 40 µM is roughly 66%, the viability at 80 µM was roughly 32% and the viability at 100 µM is roughly 28%. Also, the viability at 40 µM in data set [4] (8 h) was roughly 57%.
Turning to `OC(=[18O])C(=[18O])CBr` [Molecule 5], the “cells killed in terms of MTT” value in data set [1] is “about 81%”. Besides, the cell morphology result in data set [2] (40 μM, after 8 hours) is “rounding and membrane blabbing”. The ATP generation entry in data set [3] (1 hour treatment) is “about 69%”; in data set [3] (after 8 hours), “about 26%”. The “cells killed in terms of ATP generation” value in data set [3] is “about 74%”. The viability at 40 µM in data set [4] (1 h) was roughly 48%; in data set [4] (8 h), roughly 19%. In data set [4] (1 h), the viability at 80 µM is roughly 6%. In addition, in data set [4], the viability at 100 µM is roughly 2%.
Consider `O=C(O)C(=O)[13CH2]Br` [Molecule 3], for which the “cells killed in terms of MTT” value in data set [1] is “about 54%”. Also, the cell morphology entry in data set [2] (40 μM, after 8 hours) was “rounding and membrane blabbing”. Besides, the ATP generation result is reported as “about 80%” in data set [3] (1 hour treatment) and “about 66%” in data set [3] (after 8 hours). Also, in data set [3], the “cells killed in terms of ATP generation” value is given as “about 34%”. The cells killed in data set [4] (80 μM, 1 hour treatment) was roughly 88%. The viability at 40 µM is roughly 62% in data set [4] (1 h) and roughly 46% in data set [4] (8 h). In addition, the viability at 100 µM in data set [4] (1 h) is roughly 5%.
For the compound `[2H]C([2H])(Br)C(=O)C(=O)O` [Molecule 4], the “cells killed in terms of MTT” value in data set [1] is reported as 32-40%. Besides, the cell morphology result in data set [2] (80 μM, after 2 hours) is “rounding and membrane blabbing”. Moreover, the ATP generation in data set [3] (1 hour treatment) is recorded as 91%; in data set [3] (after 8 hours), “about 76%”. For the same compound, the “cells killed in terms of ATP generation” value in data set [3] is 32-40%. Besides, the cells killed entry in data set [4] (80 μM, 1 hour treatment) is reported as “about 99%”. Further, the cell death entry in data set [4] (100 μM) is listed as “about 100%”. The viability at 40 µM in data set [4] (1 h) is roughly 58%; in data set [4] (8 h), roughly 60%.
Turning to `O=C(O)C(=O)CBr` [Molecule 0, 3-Bromopyruvate, reference compound], in data set [2] (40, 80 and 100 μM), the cell morphology entry is “change in morphology”. For the same compound, the figures for the ATP generation in data set [3] (1 hour treatment) and in data set [3] (after 8 hours) were 80% and 35%, respectively. Besides, the “cell death in Panc-2 cells” value in data set [4] (40 μM, 1 hour treatment) turned out to be 58%. For the same compound, the “percent viability of Panc-2 cells” value in data set [4] (40 μM, 8 hours treatment) worked out at 24%. Also, the cells killed entry in data set [4] (80 μM, 1 hour treatment) is “about 97%”. Besides, the “cell death (cells killed)” value in data set [4] (80 μM, 8 hours treatment) is 100%.
For the compound `O=C(O)[13C](=O)CBr` [Molecule 2], in data set [1], the “cells killed in terms of MTT” value is listed as 40%. Also, the cell morphology result in data set [2] (80 μM, time not given) is “rounding and membrane blabbing”. The ATP generation came to 83% in data set [3] (1 hour treatment) and 68% in data set [3] (after 8 hours). Further, the “cells killed in terms of ATP generation” value in data set [3] was determined as 32%. For the same compound, the cells killed result in data set [4] (80 μM, 4 hour treatment) is “about 99%”. For the same compound, the results for the viability at 40 µM in data set [4] (1 h) and in data set [4] (8 h) were roughly 52% and roughly 60%, respectively. The viability at 100 µM in data set [4] is roughly 0%.
